# Experimental data taken from paper PMC10609944, “Development of a Dosage form for a Photoswitchable Local Anesthetic Ethercaine” (Pharmaceuticals, 2023).
# Counter-ions that a name gives are not always drawn. Like-named read-outs stand apart in the source and are kept apart here. Marks after values point to notes of the source that are not given here.
# Legend:
# rabbit eye cornea [1] = test: Local anesthetic activity, surface anesthesia on rabbit eye cornea, Regnier method; conditions: solutions irradiated with UV light λ = 365 nm vs dark
# Text: The essence of the method is to estimate the number of eye closures during the tactile exposure of the cornea of a rabbit’s eye. According to the method, four animals (eight experimental points) were selected for each group, except two groups with a negative control. For the latter two animals (four experimental points) were used due to the lack of the activity and to minimize the number of animals in the experiment. The animals were randomly divided into four experimental (1% ETH·HCl in 4% Kolliphor ELP or in 4% Pluronic F127, two modes with and without UV irradiation) and four control groups (4% Kolliphor ELP or 4% Pluronic F127, two modes with and without UV irradiation).
# For determination of the sensitivity of rabbit eye cornea using the surface anesthesia method, a total of four rabbits with a basic sensitivity threshold of 1–2 touches were selected. […]
# Before the experiment began, the animal was restrained, leaving only its head free. The eyelashes were cut and the sensitivity threshold was determined for each eye. […] After that, the sensitivity threshold of the eye cornea to tactile impact was determined. […] Each time, tactile stimulation of the same strength and rhythm was applied to the cornea and the minimum number of touches causing the eyelids to close (but no more than 100 touches and no longer than for 1 min) was recorded.
# [2] = Spectrophotometric determination of Z→E half-transformation time (t1/2) in solutions; format: physicochemical; conditions: after 365 nm irradiation, thermal back Z→E, room temperature
# Experimental: This parameter depends on a number of conditions, including the solvent; therefore, at the next stage, the effect of the solubilizer on the t1/2 value was examined. The study was carried out by a standard method using UV/Vis spectrophotometry. At the beginning of the experiment, the spectrum of the initial photostationary state (PSS) with predominance of the E-form was recorded, after which the solution was irradiated with UV light (λ = 365 nm) and the spectrum of the resulting PSS, with predominance of the Z-form, was recorded.
# Next, the rate of reverse isomerization was monitored by measuring the absorption intensity at 5 min intervals. […]
# UV/Vis spectroscopy was used for the time determination of Z-isomers’ half-lifes. […] Then, lnAt/A0 values were calculated using Equation (1):(1) lnAt/A0=lnAbsPSS(dark)−Abstime/AbsPSS(dark)−AbsPSS(365nm), where AbsPSS(dark) , AbsPSS(365nm), and Abstime are absorbance values at λmax(E) in the dark at the beginning of the experiment, after UV light (λ = 365 nm) irradiation and at different time points from 0 to 60 min, respectively. Then, a graph was plotted depending on the lnAt/A0 values from the time, a trend line was calculated and a first-order rate constant (k) for the thermal back Z–E isomerization reaction was obtained as the slope of the trend line. […]
# [3] = Solubilization of ethercaine: maximum solubility; format: physicochemical
# Text: Since ETH itself, as a free base, is virtually insoluble in water and only partially soluble in 4% solution of Kolliphor ELP, at the first stage it was decided to study the effects of increasing the concentration of Kolliphor ELP and replacing it with Pluronic F127. Pluronic F127 is also an FDA-approved solubilizer of a different nature to the Kolliphor ELP, so it was selected as an alternative solubilizer for the study. Both substances are surfactants capable of forming direct micelles in aqueous solutions for loading hydrophobic compounds that are sparingly soluble in water. We chose a 4% concentration of Kolliphor ELP as the initial concentration that is suitable for the solubilization of hydrophobic dyes but is safe for clinical use, including for intravenous administration. In the case of other administration routes, for example, for ophthalmic use, this concentration can be increased. For further studies, we chose a 10% concentration of Kolliphor ELP. Despite an almost two-fold increase in the maximum solubility of ETH (Table 1) with an increase in the concentration of Kolliphor ELP from 4% to 10%, data on biological activity indicated an unstable and undulating local anesthetic effect on the cornea of the rabbit eye according to the Regnier method, which appeared to be due to the delayed drug release at high surfactant concentrations.
# At the next stage of the solubility study, micelle-forming solubilizers and an anesthetic in the form of the ETH·HCl salt were used.
# A solution of 4-(2-(N-morpholino)-ethoxy)-azobenzene hydrochloride (2) (50.0 mg) in dichloromethane (2 mL) was added dropwise to a freshly prepared 4% aqueous solution of solubilizer (Kolliphor® ELP or Pluronic F127) (5 mL) heated to 45 °C with continuous argon bubbling. Bubbling was continued until strong foaming started. A clear orange solution with a concentration of 1.0% was obtained, which was subsequently filtered in turn through 0.45 µm PTFE filter and then through 0.22 µm PTFE filter.
# rabbit eye cornea [4] = tested on: rabbit eye cornea; design: method as in PMID 35628162; conditions: n = 8, cited from earlier work
# [5] = design: method as in PMID 35628162; conditions: in 4% Kolliphor ELP; cited from earlier work
# [6] = aqueous micellar solution of Kolliphor ELP, aqueous with cosolvent or surfactant or cyclodextrin, 4% micellar solution of Kolliphor ELP, read-out: Maximum Solubility of Ethercaine
# [7] = aqueous micellar solution of Pluronic F127, aqueous with cosolvent or surfactant or cyclodextrin, 4% micellar solution of Pluronic F127, read-out: Maximum Solubility of Ethercaine
# [8] = water without excipients, water, no excipients, read-out: Maximum Solubility of Ethercaine
Structure (SMILES),decrease in the local anesthetic effect on UV irradiation (factor) (rabbit eye cornea [1]),Half-Transformation Time (t1/2) ([2]; 4% micellar solution of Kolliphor ELP),Half-Transformation Time (t1/2) ([2]; 4% micellar solution of Pluronic F127),"solubility ([3]; aqueous micellar solution of Kolliphor ELP, 4% micellar solution of Kolliphor ELP, read-out: Maximum Solubility of Ethercaine)","solubility [3, 6]","solubility ([3]; aqueous micellar solution of Pluronic F127, 4% micellar solution of Pluronic F127, read-out: Maximum Solubility of Ethercaine)","solubility [3, 7]","solubility [3, 8]","Regnier Index (Min—13, Max—1300) (rabbit eye cornea [4]; Dark)","Regnier Index (Min—13, Max—1300) (rabbit eye cornea [4]; UV λ = 365 nm)","solubility ([3]; aqueous micellar solution of Kolliphor ELP, aqueous with cosolvent or surfactant or cyclodextrin, 10% micellar solution of Kolliphor ELP, read-out: Maximum Solubility of Ethercaine)",solubility ([3]; before development of the dosage form),solubility of the anesthetic in water ([3]; before the hydrochloride micellar dosage forms),solubility ([3]; developed dosage form),solubility of the anesthetic in water ([3]; dosage forms based on micellar solutions of Kolliphor ELP and Pluronic F127),maximum concentration such that the solution remained stable [5]
"c1ccc(/N=N/c2ccc(OCCN3CCOCC3)cc2)cc1 [ETH·HCl, 4-(2-(N-Morpholino)-Ethoxy)-Azobenzene Hydrochloride]",16–20,0.85 h,1.15 h,≥ 20000 µg/mL,> 20000 µg/mL,≥ 20000 µg/mL,> 20000 µg/mL,6000 µg/mL,,,,,,,,
"CCN(CC)CC(=O)Nc1c(C)cccc1C [2% lidocaine hydrochloride, lidocaine hydrochloride]",,,,,,,,,451 ± 40 (n = 8) ^a,469 ± 37 (n = 8) ^a,,,,,,
"c1ccc(N=Nc2ccc(OCCN3CCOCC3)cc2)cc1 [ETH, 4-(2-(N-Morpholino)-ethoxy)-azobenzene]",,,,,6000 µg/mL,,7000 µg/mL,< 1000 µg/mL,,,10000 µg/mL,0.6%,0.6 wt.%,≥ 2%,≥ 2 wt.%,0.6 wt.%
